# Laboratory results reported in paper PMC5909127, “Optimization of a “bump-and-hole” approach to allele-selective BET bromodomain inhibition” (Chemical Science, 2018).
# How the values were obtained:
# [1] = target: WT BET bromodomains (BD1 and BD2 of BRD2, BRD3 and BRD4); test: competitive AlphaLISA (Bio-JQ1 displacement); format: binding, human; details: mean and SD of all somatic bromodomains; active enantiomer concentration
# [2] = test system: L/V BET bromodomains (BD1 and BD2 of BRD2, BRD3 and BRD4); test: competitive AlphaLISA (Bio-JQ1 displacement); format: binding, human; details: for AlphaLISA pIC50 ± SD Δ: L/V minus WT; for AlphaLISA pIC50 ± SD L/V: mean and SD of all somatic bromodomains, active enantiomer concentration
# BRD2 BD1 WT [3] = target: T1, BRD2 BD1 WT (Homo sapiens, UniProt P25440); test: competitive AlphaLISA; format: binding
# T1 sequence (P25440 71-176): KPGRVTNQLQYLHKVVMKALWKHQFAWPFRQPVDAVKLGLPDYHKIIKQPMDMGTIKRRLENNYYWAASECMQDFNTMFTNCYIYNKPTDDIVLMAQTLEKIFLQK
# BRD2 BD1 L/V [4] = target: T2, BRD2 BD1 L/V (Homo sapiens, UniProt P25440, L110V); test: competitive AlphaLISA; format: binding
# T2 sequence (P25440 71-176 L110V limits assumed): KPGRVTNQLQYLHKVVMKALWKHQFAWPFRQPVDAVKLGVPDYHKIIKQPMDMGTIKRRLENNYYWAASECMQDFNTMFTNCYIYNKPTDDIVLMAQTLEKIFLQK
# BRD2 BD2 WT = BRD2 BD2 WT (Homo sapiens, UniProt P25440); test: competitive AlphaLISA; format: binding
# Chain of BRD2 BD2 WT (P25440 344-455): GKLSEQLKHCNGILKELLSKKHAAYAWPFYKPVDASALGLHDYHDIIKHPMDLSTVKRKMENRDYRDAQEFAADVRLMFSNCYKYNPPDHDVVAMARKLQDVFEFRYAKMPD
# BRD2 BD2 L/V [5] = target: T3, BRD2 BD2 L/V (Homo sapiens, UniProt P25440, L383V); test: competitive AlphaLISA; format: binding
# T3 sequence (P25440 344-455 L383V): as the sequence (P25440 344-455) above, with L40V counted along it
# BRD3 BD1 WT = BRD3 BD1 WT (Homo sapiens, UniProt Q15059); test: competitive AlphaLISA; format: binding
# Chain of BRD3 BD1 WT (Q15059 24-144): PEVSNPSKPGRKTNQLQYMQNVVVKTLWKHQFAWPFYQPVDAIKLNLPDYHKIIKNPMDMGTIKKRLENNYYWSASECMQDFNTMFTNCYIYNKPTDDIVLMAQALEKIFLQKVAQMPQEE
# BRD3 BD1 L/V [6] = target: T4, BRD3 BD1 L/V (Homo sapiens, UniProt Q15059, L70V); test: competitive AlphaLISA; format: binding
# T4 sequence (Q15059 24-144 L70V limits assumed): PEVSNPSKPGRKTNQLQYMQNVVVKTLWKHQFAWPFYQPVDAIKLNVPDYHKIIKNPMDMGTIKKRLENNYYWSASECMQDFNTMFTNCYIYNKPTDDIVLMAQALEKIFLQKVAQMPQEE
# BRD3 BD2 WT [7] = target: T5, BRD3 BD2 WT (Homo sapiens, UniProt Q15059); test: competitive AlphaLISA; format: binding
# T5 sequence (Q15059 306-416): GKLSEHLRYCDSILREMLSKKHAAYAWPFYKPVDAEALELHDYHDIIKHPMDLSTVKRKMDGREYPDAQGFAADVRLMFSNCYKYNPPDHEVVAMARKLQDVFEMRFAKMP
# BRD3 BD2 L/V [8] = target: T6, BRD3 BD2 L/V (Homo sapiens, UniProt Q15059, L345V); test: competitive AlphaLISA; format: binding
# T6 sequence (Q15059 306-416 L345V limits assumed): as the sequence (Q15059 306-416) above, with L40V counted along it
# BRD4 BD1 WT [9] = target: T7, BRD4 BD1 WT (Homo sapiens, UniProt O60885); test: competitive AlphaLISA; format: binding; details: AlphaLISA pIC50 Value BRD4 BD1 WT
# BRD4 BD1 L/V [10] = target: T8, BRD4 BD1 L/V (Homo sapiens, UniProt O60885, L94V); test: competitive AlphaLISA; format: binding; details: AlphaLISA pIC50 Value BRD4 BD1 L/V
# BRD4 BD2 WT [11] = target: T9, BRD4 BD2 WT (Homo sapiens, UniProt O60885); test: competitive AlphaLISA; format: binding
# BRD4 BD2 L/V [12] = target: T10, BRD4 BD2 L/V (Homo sapiens, UniProt O60885, L387V); test: competitive AlphaLISA; format: binding
# BRDT BD1 WT = BRDT BD1 WT (Homo sapiens, UniProt Q58F21); test: competitive AlphaLISA; format: binding
# BRDT BD1 L/V = BRDT BD1 L/V (Homo sapiens, UniProt Q58F21, L63V); test: competitive AlphaLISA; format: binding
# BRDT BD2 WT = BRDT BD2 WT (Homo sapiens, UniProt Q58F21); test: competitive AlphaLISA; format: binding
# BRDT BD2 L/V = BRDT BD2 L/V (Homo sapiens, UniProt Q58F21, L306V); test: competitive AlphaLISA; format: binding
# BRD2 BD1 WT [13] = target: T1, BRD2 BD1 WT; test: ITC; format: binding
# BRD2 BD1 L/V [14] = target: T2, BRD2 BD1 L/V; test: ITC; format: binding
# BRD2 BD2 L/V [15] = target: T3, BRD2 BD2 L/V; test: ITC; format: binding
# BRD3 BD1 L/V [16] = target: T4, BRD3 BD1 L/V; test: ITC; format: binding
# BRD3 BD2 WT [17] = target: T5, BRD3 BD2 WT; test: ITC; format: binding
# BRD3 BD2 L/V [18] = target: T6, BRD3 BD2 L/V; test: ITC; format: binding
# BRD4 BD1 WT [19] = target: T7, BRD4 BD1 WT; test: ITC; format: binding
# BRD4 BD1 L/V [20] = target: T8, BRD4 BD1 L/V; test: ITC; format: binding
# BRD4 BD2 WT [21] = target: T9, BRD4 BD2 WT; test: ITC; format: binding
# BRD4 BD2 L/V [22] = target: T10, BRD4 BD2 L/V; test: ITC; format: binding
# [23] = target: WT somatic BET bromodomains; test: ITC; details: mean and SD of all somatic bromodomains
# [24] = test system: L/V somatic BET bromodomains; test: ITC
# in vitro = details: PAMPA, pH 7.4
# Plasma Half-life = details: BALB/c, mouse, pH 7.4
# Intrinsic Clearance = details: mouse liver microsomes
structure (smiles),measurement,setting,value
CCNC(=O)[C@H](C)[C@@H]1N=C(c2ccc(Cl)cc2)c2ccc(OC)cc2-n2c(C)nnc21 (relative stereo) [Compound 21],AlphaLISA pIC50 ± SD WT,[1],4.7 ± 0.3
same,AlphaLISA pIC50 ± SD Δ,[2],1.3 ± 0.2
same,AlphaLISA pIC50 ± SD L/V,[2],6.0 ± 0.2
same,IC50,BRD2 BD1 WT [3],39.8 µM
same,IC50,BRD2 BD1 L/V [4],2000 nM
same,IC50,BRD2 BD2 WT,15.8 µM
same,IC50,BRD2 BD2 L/V [5],1000 nM
same,IC50,BRD3 BD1 WT,5.01 µM
same,IC50,BRD3 BD1 L/V [6],501 nM
same,IC50,BRD3 BD2 WT [7],15.8 µM
same,IC50,BRD3 BD2 L/V [8],501 nM
same,IC50,BRD4 BD1 WT [9],25.1 µM
same,IC50,BRD4 BD1 L/V [10],1000 nM
same,IC50,BRD4 BD2 WT [11],31.6 µM
same,IC50,BRD4 BD2 L/V [12],1260 nM
same,IC50,BRDT BD1 WT,50.1 µM
same,IC50,BRDT BD1 L/V,2.51 µM
same,IC50,BRDT BD2 WT,25.1 µM
same,IC50,BRDT BD2 L/V,1.58 µM
same,Kd,BRD2 BD1 WT [13],> 60 µM
same,Kd,BRD2 BD1 L/V [14],990 nM
same,ΔH BRD2 BD1 L/V,BRD2 BD1 L/V [14]; ITC,-8.8 kcal/mol
same,N BRD2 BD1 L/V,BRD2 BD1 L/V [14]; ITC stoichiometry,0.97
same,Kd,BRD2 BD2 L/V [15],230 nM
same,ΔH BRD2 BD2 L/V,BRD2 BD2 L/V [15]; ITC,-4.8 kcal/mol
same,N BRD2 BD2 L/V,BRD2 BD2 L/V [15]; ITC stoichiometry,0.84
same,Kd,BRD3 BD1 L/V [16],410 nM
same,ΔH BRD3 BD1 L/V,BRD3 BD1 L/V [16]; ITC,-10.7 kcal/mol
same,N BRD3 BD1 L/V,BRD3 BD1 L/V [16]; ITC stoichiometry,0.92
same,Kd,BRD3 BD2 WT [17],11 µM
same,ΔH BRD3 BD2 WT,BRD3 BD2 WT [17]; ITC,-4.5 kcal/mol
same,N BRD3 BD2 WT,BRD3 BD2 WT [17]; ITC stoichiometry,0.46
same,Kd,BRD3 BD2 L/V [18],800 nM
same,ΔH BRD3 BD2 L/V,BRD3 BD2 L/V [18]; ITC,-6.7 kcal/mol
same,N BRD3 BD2 L/V,BRD3 BD2 L/V [18]; ITC stoichiometry,0.90
same,Kd,BRD4 BD1 WT [19],39 µM
same,ΔH BRD4 BD1 WT,BRD4 BD1 WT [19]; ITC,-3.3 kcal/mol
same,ΔH BRD4 BD1 L/V,BRD4 BD1 L/V [20]; ITC,-5.9 kcal/mol
same,N BRD4 BD1 L/V,BRD4 BD1 L/V [20]; ITC stoichiometry,0.88
same,Kd,"BRD4 BD1 L/V [20]; Kd BRD4 BD1 L/V, ITC, 30°C",370 nM
same,Kd,BRD4 BD2 WT [21],> 60 µM
same,Kd,BRD4 BD2 L/V [22],320 nM
same,ΔH BRD4 BD2 L/V,BRD4 BD2 L/V [22]; ITC,-4.4 kcal/mol
same,N BRD4 BD2 L/V,BRD4 BD2 L/V [22]; ITC stoichiometry,1.06
same,ITC pKd ± SD WT,[23],4.5 ± 0.4
same,ITC pKd ± SD Δ,[24]; L/V minus WT,1.8 ± 0.5
same,ITC pKd ± SD L/V,[24]; mean and SD of all somatic bromodomains,6.3 ± 0.2
same,Papp,in vitro,4 ×10⁻⁶ cm/s
same,half-life at 50 µM,Plasma Half-life,> 180 min
same,CL int,Intrinsic Clearance,1.5 ml min^–1 g^–1
C=CC[C@@H](C(=O)OC)[C@@H]1N=C(c2ccc(Cl)cc2)c2ccc(OC)cc2-n2c(C)nnc21 (relative stereo) [Compound 9],AlphaLISA pIC50 ± SD WT,[1],4.4 ± 0.1
same,AlphaLISA pIC50 ± SD Δ,[2],1.3 ± 0.2
same,AlphaLISA pIC50 ± SD L/V,[2],5.7 ± 0.2
same,IC50,BRD2 BD1 WT [3],50.1 µM
same,IC50,BRD2 BD1 L/V [4],3980 nM
same,IC50,BRD2 BD2 WT,39.8 µM
same,IC50,BRD2 BD2 L/V [5],1260 nM
same,IC50,BRD3 BD1 WT,31.6 µM
same,IC50,BRD3 BD1 L/V [6],1580 nM
same,IC50,BRD3 BD2 WT [7],50.1 µM
same,IC50,BRD3 BD2 L/V [8],1000 nM
same,IC50,BRD4 BD1 WT [9],39.8 µM
same,IC50,BRD4 BD1 L/V [10],3160 nM
same,IC50,BRD4 BD2 WT [11],63.1 µM
same,IC50,BRD4 BD2 L/V [12],3160 nM
same,IC50,BRDT BD1 WT,63.1 µM
same,IC50,BRDT BD1 L/V,6.31 µM
same,IC50,BRDT BD2 WT,50.1 µM
same,IC50,BRDT BD2 L/V,5.01 µM
same,Papp,in vitro,13.6 ×10⁻⁶ cm/s
same,half-life at 50 µM,Plasma Half-life,> 180 min
same,CL int,Intrinsic Clearance,9.4 ml min^–1 g^–1
C=CC[C@@H](C(=O)NCC)[C@@H]1N=C(c2ccc(Cl)cc2)c2cc(OC)ccc2-n2c(C)nnc21 (relative stereo) [Compound 18],AlphaLISA pIC50 ± SD WT,[1],4.3 ± 0.1
same,AlphaLISA pIC50 ± SD Δ,[2],1.5 ± 0.1
same,AlphaLISA pIC50 ± SD L/V,[2],5.9 ± 0.2
same,IC50,BRD2 BD1 WT [3],50.1 µM
same,IC50,BRD2 BD1 L/V [4],2510 nM
same,IC50,BRD2 BD2 WT,50.1 µM
same,IC50,BRD2 BD2 L/V [5],1000 nM
same,IC50,BRD3 BD1 WT,31.6 µM
same,IC50,BRD3 BD1 L/V [6],794 nM
same,IC50,BRD3 BD2 WT [7],50.1 µM
same,IC50,BRD3 BD2 L/V [8],1260 nM
same,IC50,BRD4 BD1 WT [9],39.8 µM
same,IC50,BRD4 BD1 L/V [10],1260 nM
same,IC50,BRD4 BD2 WT [11],63.1 µM
same,IC50,BRD4 BD2 L/V [12],2000 nM
same,IC50,BRDT BD1 WT,79.4 µM
same,IC50,BRDT BD1 L/V,5.01 µM
same,IC50,BRDT BD2 WT,79.4 µM
same,IC50,BRDT BD2 L/V,5.01 µM
same,Papp,in vitro,5.2 ×10⁻⁶ cm/s
same,half-life at 50 µM,Plasma Half-life,> 180 min
same,CL int,Intrinsic Clearance,2.6 ml min^–1 g^–1
